Experimental data: patent US20090181986A1, “SUBSTITUTED HETEROCYCLIC COMPOUNDS” (priority 2007, published 2009)
Read-outs that look alike come from different tables or passages of the source.

Experiments:
[1] = system: L-type calcium channel; assay: L-type calcium channel activity well-plate assay (IMR-32 cells, Ca-4 dye, FlexStation); format: cell-based, human
How it was run: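 IMR-32 human neuroblastoma cells seeded overnight at 200,000 cells/well, loaded 1 h at 37° with Ca-4 dye in HBSS/20 mM HEPES pH 7.4 with 2 mM probenecid.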

[2] = target: T1, wild-type human cardiac sodium channel, hNav1.5 (Homo sapiens, UniProt Q14524); assay: Peak INa screening assay (tonic block and use-dependent block); format: cell-based; settings: test compound at 10 μM
T1 sequence (Q14524 whole entry): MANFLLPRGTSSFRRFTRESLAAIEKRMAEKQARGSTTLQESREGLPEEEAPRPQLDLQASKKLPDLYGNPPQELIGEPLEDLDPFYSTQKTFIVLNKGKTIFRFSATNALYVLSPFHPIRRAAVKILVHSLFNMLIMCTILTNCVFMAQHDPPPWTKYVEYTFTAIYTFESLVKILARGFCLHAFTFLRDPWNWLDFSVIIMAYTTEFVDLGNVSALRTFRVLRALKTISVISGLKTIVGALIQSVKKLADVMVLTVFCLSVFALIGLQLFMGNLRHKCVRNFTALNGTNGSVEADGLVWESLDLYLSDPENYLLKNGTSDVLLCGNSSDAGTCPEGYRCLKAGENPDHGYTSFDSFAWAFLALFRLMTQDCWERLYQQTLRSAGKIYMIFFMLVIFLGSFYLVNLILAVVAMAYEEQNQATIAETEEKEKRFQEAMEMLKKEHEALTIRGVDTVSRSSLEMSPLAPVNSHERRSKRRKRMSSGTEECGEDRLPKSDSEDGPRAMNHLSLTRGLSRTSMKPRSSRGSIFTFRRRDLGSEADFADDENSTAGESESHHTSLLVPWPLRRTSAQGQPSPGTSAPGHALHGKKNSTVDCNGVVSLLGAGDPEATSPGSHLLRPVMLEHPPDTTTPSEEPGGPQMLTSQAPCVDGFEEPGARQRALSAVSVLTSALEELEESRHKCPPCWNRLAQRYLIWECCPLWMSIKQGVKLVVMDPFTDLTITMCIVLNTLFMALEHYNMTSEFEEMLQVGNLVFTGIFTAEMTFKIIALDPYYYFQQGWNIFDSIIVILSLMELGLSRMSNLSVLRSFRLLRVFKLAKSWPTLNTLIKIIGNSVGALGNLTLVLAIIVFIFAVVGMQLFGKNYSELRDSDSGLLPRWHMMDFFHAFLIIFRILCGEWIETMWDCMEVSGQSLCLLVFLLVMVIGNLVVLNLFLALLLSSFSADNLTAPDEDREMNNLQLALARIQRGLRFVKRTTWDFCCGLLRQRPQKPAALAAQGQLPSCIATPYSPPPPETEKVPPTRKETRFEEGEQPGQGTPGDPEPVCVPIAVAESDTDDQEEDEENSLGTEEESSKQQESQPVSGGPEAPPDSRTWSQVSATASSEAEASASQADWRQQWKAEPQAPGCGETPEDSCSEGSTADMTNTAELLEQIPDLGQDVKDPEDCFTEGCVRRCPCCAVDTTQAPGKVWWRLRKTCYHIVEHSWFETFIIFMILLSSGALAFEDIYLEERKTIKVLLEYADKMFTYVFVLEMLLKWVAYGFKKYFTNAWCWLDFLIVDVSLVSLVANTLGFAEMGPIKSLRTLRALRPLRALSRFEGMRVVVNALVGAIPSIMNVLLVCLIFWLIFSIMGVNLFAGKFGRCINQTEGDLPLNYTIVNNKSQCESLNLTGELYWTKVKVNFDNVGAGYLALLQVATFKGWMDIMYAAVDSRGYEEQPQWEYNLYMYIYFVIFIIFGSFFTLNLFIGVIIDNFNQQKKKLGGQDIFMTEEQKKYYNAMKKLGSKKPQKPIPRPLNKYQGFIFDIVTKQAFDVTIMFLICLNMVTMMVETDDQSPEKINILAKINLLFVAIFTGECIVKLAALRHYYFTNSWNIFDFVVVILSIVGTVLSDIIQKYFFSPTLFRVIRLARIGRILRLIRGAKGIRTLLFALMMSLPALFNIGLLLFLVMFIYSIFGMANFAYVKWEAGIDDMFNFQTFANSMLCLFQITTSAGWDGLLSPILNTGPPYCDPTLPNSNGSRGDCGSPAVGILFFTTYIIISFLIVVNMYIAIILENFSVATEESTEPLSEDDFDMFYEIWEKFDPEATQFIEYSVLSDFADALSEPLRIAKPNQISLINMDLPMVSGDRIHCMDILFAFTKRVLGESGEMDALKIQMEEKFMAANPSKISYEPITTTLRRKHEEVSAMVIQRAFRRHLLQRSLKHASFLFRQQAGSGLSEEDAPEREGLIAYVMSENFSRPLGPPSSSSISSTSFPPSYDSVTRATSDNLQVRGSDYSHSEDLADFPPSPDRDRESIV
Protocol: (§1) The late sodium current (Late INa) and peak sodium current (Peak INa) assays are performed on an automated electrophysiology platform, PatchXpress 7000A (MDS Analytical Technologies, Sunnyvale, Calif.), which uses the whole cell patch clump technique to measure currents through the cell membrane of up to 16 cells at a time. The assay uses an HEK293 (human embryonic kidney) cell line heterologously expressing the wild-type human cardiac sodium channel, hNav1.5, purchased from Millipore (Billerica, Mass.). No beta subunits were coexpressed with the Na channel alpha subunit. […] Experiments are carried out at 24-27° C.
(§2) For both the Late INa and Peak INa assays, series resistance compensation is set to 50% and whole-cell compensation is performed automatically. […] Currents through open sodium channels are automatically recorded and stored in the DataXpress2 database (MDS Analytical Technologies, Sunnyvale, Calif.). Analysis is performed using DataXpress2 analysis software and data are compiled in Excel.
(§3) Compound stocks are routinely made in glass vials to 10 mM in dimethyl sulfoxide (DMSO). In some cases, when compounds are not soluble in DMSO, they are made in 100% ethanol. Stocks are sonicated as necessary. The extracellular solution for screening Late INa is composed of: 140 mM NaCl, 4 mM KCl, 1.8 mM CaCl2, 0.75 mM MgCl2, and 5 mM HEPES with pH adjusted to 7.4 using NaOH. The extracellular solution for screening Peak INa is composed of: 20 mM NaCl, 120 mM N-methyl-D glucamine, 4 mM KCl, 1.8 mM CaCl2, 0.75 mM MgCl2, and 5 mM HEPES with pH adjusted to 7.4 using HCl. The intracellular solution used to perfuse the inside of the cells for both the Late INa and Peak INa assays contains: 120 mM CsF, […], 5 mM EGTA, 5 mM HEPES and pH adjusted to 7.4 with CsOH. Compounds are diluted in extracellular solution to 10 mM in glass vials and then transferred to glass well plates before robotic addition to the cells. The ONa extracellular solution used at the end of each experiment for the Late INa and Peak INa assays to measure baseline current contains: 140 mM N-methyl-D-glucamine; 4 mM KCl; 1.8 mM CaCl2; 0.75 mM MgCl2; 5 mM HEPES and pH was adjusted to 7.4 with HCl.
Compounds were also evaluated for their effect in several other assays, including their effect on Peak INa. In some cases, the effect on Peak INa was measured using data from the Late INa assay. […] Since the peak INa can be very large, introducing artifacts in the recording, the concentration of Na^+ in the bath is reduced to 20 mM and a nonpermeant cation is added to compensate for the Na^+ that was omitted from the standard extracellular solution (see above). The peak INa assay uses a holding potential of −100 mV and a 20 ms test pulse to 0 mV to activate the channel. As in the Late INa assay, stepping the voltage to 0 mV causes a rapid increase in negative Na current through hNav1.5 that inactivates within a few ms. No late INa activator is added for the peak assay.
For the separate peak INa assay, both tonic (TB) block and use-dependent (UDB) block of peak inward sodium current by 10 μM compound are determined. TB is block of the channel in the resting state, before the channel opens. TB is simulated in this assay by stimulating the channel to open at a low frequency (0.1 Hz). This is done in order to measure the control current amplitude and monitor current rundown, enabling correction for rundown in the calculation of percent block for TB.

[3] = target: T1, wild-type human cardiac sodium channel, hNav1.5; assay: Late INa screening assay (PatchXpress whole cell patch clamp, late current generated with Tefluthrin or ATX II); format: cell-based; settings: test compound at 10 μM
Protocol: as §1, §2
as §3, with “Compounds are diluted in extracellular solution to 10 mM in glass vials and then transferred to glass well plates before robotic addition to the cells.” left out
For the Late INa assay, sodium channels are activated every 10 seconds (0.1 Hz) by depolarizing the cell membrane to −20 mV for 250 milliseconds (ms) from a holding potential of −120 mV.
All compounds are tested to determine their activity in blocking the late sodium current. Late INa current is generated by adding 10 μM Tefluthrin (pyrethroid) to the extracellular solution while recording Na currents. […] For some experiments, 50 nM ATX II (sea anemone toxin), another late INa activator, was used to generate the late component. […] Baseline current in the absence of Na^+ ions is measured at the end of each experiment (after two additions of 0 Na solution—see above) and is used to calculate the percent block by compound.

[4] = target: T2, human cardiac L-type calcium channels (hCav1.2, coexpressed with the beta 2 subunit) (Homo sapiens, UniProt Q13936); assay: L-type calcium channel patch clamp screening assay (ICaL, HEK293); format: cell-based; settings: hCav1.2 in HEK293, percentage of current inhibited at steady state; for ICaL Patch Clamp Assay 1 μM % blk: 1 μM test compound; for ICaL Patch Clamp Assay 10 μM % blk: 10 μM test compound
T2 construct: expressed in transfected cells
T2 sequence (Q13936 whole entry): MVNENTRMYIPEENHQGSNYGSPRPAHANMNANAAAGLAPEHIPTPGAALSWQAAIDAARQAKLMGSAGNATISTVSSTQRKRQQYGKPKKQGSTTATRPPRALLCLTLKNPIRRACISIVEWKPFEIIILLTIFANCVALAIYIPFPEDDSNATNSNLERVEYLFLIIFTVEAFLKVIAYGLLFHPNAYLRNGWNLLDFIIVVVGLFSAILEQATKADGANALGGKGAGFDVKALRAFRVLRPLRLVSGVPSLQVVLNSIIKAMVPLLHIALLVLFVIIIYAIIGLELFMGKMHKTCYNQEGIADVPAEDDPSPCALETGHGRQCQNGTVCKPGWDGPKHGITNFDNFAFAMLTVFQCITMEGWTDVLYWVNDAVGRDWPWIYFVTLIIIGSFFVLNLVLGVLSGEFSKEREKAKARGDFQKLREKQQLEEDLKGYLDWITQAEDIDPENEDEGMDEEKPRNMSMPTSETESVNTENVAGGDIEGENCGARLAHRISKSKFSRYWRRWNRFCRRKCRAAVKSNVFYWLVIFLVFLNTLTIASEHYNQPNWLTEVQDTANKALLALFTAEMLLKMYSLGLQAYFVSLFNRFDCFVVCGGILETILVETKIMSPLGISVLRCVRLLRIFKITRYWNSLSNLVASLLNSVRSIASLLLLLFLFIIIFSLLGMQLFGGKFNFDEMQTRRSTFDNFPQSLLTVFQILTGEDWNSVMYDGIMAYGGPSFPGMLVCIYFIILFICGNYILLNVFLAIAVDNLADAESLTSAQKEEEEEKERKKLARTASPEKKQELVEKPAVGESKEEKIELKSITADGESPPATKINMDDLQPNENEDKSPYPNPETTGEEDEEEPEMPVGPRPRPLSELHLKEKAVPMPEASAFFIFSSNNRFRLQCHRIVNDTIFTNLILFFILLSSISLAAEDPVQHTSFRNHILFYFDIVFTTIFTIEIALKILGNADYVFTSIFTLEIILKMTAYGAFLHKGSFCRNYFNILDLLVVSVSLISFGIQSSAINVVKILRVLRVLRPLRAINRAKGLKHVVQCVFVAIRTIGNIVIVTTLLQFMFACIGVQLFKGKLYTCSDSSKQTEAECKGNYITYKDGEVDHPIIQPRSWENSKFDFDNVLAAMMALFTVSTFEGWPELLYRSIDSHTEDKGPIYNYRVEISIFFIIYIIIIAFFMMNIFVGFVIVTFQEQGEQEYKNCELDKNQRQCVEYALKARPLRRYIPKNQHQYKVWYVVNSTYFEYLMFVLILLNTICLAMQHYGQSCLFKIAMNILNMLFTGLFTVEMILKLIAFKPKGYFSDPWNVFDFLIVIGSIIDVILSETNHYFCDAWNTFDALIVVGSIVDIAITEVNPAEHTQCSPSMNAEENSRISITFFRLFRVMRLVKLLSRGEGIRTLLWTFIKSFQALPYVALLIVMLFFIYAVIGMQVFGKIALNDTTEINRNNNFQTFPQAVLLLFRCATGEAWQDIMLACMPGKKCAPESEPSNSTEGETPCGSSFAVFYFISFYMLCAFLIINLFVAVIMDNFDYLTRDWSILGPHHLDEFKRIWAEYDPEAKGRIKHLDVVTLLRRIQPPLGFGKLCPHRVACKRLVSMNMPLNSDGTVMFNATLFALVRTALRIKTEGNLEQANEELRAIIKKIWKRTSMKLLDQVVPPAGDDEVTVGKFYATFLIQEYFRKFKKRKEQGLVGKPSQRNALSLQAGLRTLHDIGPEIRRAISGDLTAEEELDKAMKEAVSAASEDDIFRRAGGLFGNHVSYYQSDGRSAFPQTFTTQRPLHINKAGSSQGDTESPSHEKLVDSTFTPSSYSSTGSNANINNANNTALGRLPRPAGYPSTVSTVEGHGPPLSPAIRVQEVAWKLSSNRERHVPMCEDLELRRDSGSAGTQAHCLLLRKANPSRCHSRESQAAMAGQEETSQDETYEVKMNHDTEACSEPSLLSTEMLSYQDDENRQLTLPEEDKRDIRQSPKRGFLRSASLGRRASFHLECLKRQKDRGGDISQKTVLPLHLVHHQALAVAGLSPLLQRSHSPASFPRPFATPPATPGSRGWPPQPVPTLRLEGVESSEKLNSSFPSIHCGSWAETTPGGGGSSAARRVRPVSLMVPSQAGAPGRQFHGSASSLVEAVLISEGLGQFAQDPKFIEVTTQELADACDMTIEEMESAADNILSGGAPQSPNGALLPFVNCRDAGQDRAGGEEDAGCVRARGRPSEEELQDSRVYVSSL
T2 sequence (Q08289 whole entry partner): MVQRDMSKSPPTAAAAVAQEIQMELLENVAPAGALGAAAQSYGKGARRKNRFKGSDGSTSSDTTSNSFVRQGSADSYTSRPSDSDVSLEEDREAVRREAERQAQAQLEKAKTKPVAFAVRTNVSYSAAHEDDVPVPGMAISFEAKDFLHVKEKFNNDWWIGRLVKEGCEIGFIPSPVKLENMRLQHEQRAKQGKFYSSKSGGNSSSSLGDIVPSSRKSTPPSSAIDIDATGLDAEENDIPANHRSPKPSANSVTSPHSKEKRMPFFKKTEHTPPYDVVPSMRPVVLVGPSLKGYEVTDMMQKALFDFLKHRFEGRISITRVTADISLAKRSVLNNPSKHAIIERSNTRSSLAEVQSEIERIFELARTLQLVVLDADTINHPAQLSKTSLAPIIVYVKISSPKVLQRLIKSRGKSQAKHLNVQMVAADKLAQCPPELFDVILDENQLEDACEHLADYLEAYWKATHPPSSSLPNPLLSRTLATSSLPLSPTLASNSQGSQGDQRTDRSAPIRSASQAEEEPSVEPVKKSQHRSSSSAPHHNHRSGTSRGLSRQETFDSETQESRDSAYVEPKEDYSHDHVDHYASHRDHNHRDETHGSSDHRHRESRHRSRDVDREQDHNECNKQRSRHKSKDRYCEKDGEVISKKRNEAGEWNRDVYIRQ
Protocol: Compounds are screened to test for block of human cardiac L-type calcium channels (hCav1.2, encoded by the human CACNA1C gene and coexpressed with the beta 2 subunit, encoded by the human CACNB2 gene) expressed in an HEK293 cell line. Stable transfectants were selected using antibiotic resistance genes incorporated into the expression plasmids and selection pressure is maintained with selection antibiotics added to the culture medium. Cells are cultured using standard tissue culture methods for HEK293 cells.
Cells are harvested for addition to a PatchXpress automated patch clamp system. The external solution contains: 137 mM NaCl; 4 mM KCl; 1.8 mM CaCl2; 1 mM MgCl2; […]; 10 mM Glucose (pH adjusted to 7.4 with NaOH). The internal solution contains: 130 mM Cs Aspartate; 5 mM MgCl2; 5 mM EGTA; 4 mM ATP; 0.1 mM GTP; 10 mM HEPES (pH adjusted to 7.2 with N-methyl-D-glucamine).
Onset of block and steady state block of hCav1.2 channels are monitored using a stimulus voltage pattern consisting of a depolarizing test pulse (duration, 200 ms; amplitude, 10 mV) at 10s intervals from a −80 mV holding potential (FIG. 5). Test compound concentrations (1 μM and 10 μM) are applied cumulatively in ascending order without washout between applications. Peak current is measured during the step to 10 mV. A saturating concentration of nifedipine (10 μM) is added at the end of each experiment to completely block hCav1.2 current and verify sensitivity to channel blockade. Leakage current is measured after nifedipine addition and digitally subtracted from the total membrane current record. Each compound is applied to naive cells and each concentration is applied four times for a total exposure duration of five (5) minutes per concentration.
Test compound stock solutions are prepared in dimethyl sulfoxide (DMSO) and stored frozen. Test compound concentrations are prepared fresh daily by diluting stock solutions into the external HEPES-buffered physiological saline solution described above. […] Each test compound formulation is sonicated (Model 2510/5510, Branson Ultrasonics, Danbury, Conn.), at ambient room temperature for at least 20 minutes to facilitate dissolution. In preparation for the recording session, a glass-lined 96-well compound plate is loaded with the appropriate amounts of test and control solutions, and placed in the plate well of PatchXpress® (Model 7000A, MDS Analytical Technologies, Sunnyvale, Calif.).
Data acquisition and analyses are performed using conventional software. Steady state is defined by the limiting constant rate of change with time (linear time dependence). The steady state before and after test compound application is used to calculate the percentage of current inhibited at each concentration.

[5] = target: hERG potassium channel (Homo sapiens, UniProt Q12809); assay: hERG screening assay (PatchXpress patch clamp, CHO cells)
Protocol: Compounds were screened to test their activity in blocking the hERG potassium channel. The hERG channel is heterologously expressed in a CHO (Chinese Hamster Ovary) cell line. Cells are maintained with standard tissue culture procedures and stable channel expression is maintained with 500 μg/ml G418 in the culture medium. Cells are harvested for testing on the PatchXpress automated patch clamp with Acctumax (Innovative Cell Technologies, San Diego, Calif.) to isolate single cells.
The following solutions are used for electrophysiological recordings. The external solution contains: 2 mM CaCl2; 2 mM MgCl2; 4 mM KCl; 150 mM NaCl; 10 mM Glucose; 10 mM HEPES (pH 7.4 with 1M NaOH, osmolarity).
hERG channels are activated when the voltage is stepped to +20 mV from the −80 mV holding potential (see FIG. 3). During a 5 second step at +20 mV, the channels activate and then largely inactivate, so the currents are relatively small. Upon returning to −50 mV from +20 mV, hERG currents transiently become much larger as inactivation is rapidly removed and then the channel closes. The first step to −50 mV for 300 ms is used as a baseline for measuring the peak amplitude during the step to −50 mV after channel activation. The peak current at −50 mV is measured both under control conditions and after addition of compound.
All compounds are prepared as 10 mM DMSO stocks in glass vials. Stock solutions are mixed by vigorous vortexing and sonication for about 2 minutes at room temperature. For testing, compounds are diluted in glass vials using an intermediate dilution step in pure DMSO and then further diluted to working concentrations in external solution. Dilutions are prepared no longer than 20 minutes before use.
After achieving the whole-cell configuration, cells are monitored for 90 seconds to assess stability and washed with external solution for 66 seconds. The voltage protocol described above is then applied to the cells every 12 seconds and throughout the whole procedure. Only cells with stable recording parameters and meeting specified health criteria are allowed to enter the compound addition procedure.
External solution containing 0.1% DMSO (vehicle) is applied to the cells first to establish the control peak current amplitude. After allowing the current to stabilize for 3 to 5 minutes, 1 μM and then 10 μM test compounds are applied. Each compound concentration is added 4 times and cells are kept in test solution until the effect of the compound reaches steady state or for a maximum of 12 minutes. […] Washout in the external solution compartment is performed until the recovery of the current reaches steady state. Data are analyzed using DataXpress, Clampfit (Molecular Devices, Inc., Sunnyvale) and Origin 7 (Originlab Corp.)

[6] = tonic block, read-out: Tonic Peak INa % blk
[7] = use-dependent block, read-out: UDB Peak INa % blk

Structure (SMILES)	ICaL Patch Clamp Assay 1 μM % blk [4] [%]	ICaL Patch Clamp Assay 10 μM % blk [4] [%]	hERG Patch Clamp hERG % blk (1 μM test cmpd) [5] [%]	hERG Patch Clamp hERG % blk (10 μM test cmpd) [5] [%]	also measured
CC1=C(C(=O)O[C@H](C)c2ccccc2)C(c2cccc3ccccc23)n2nnnc2N1 (some centres unmarked) [PT-047]	–	–	–	–	CaL Plate Assay % blk (1 μM test cmpd) ([1]; 1 μM test cmpd): 24%; CaL Plate Assay % blk (10 μM test cmpd) ([1]; 10 μM test cmpd): 42%; Tonic Peak INa % blk ([2]; tonic block): 36.3%; Late INa % blk [3]: 67.4%
CCOC(=O)C1=C(C)NC(C)=C(C(=O)OCC)C1c1ccc(N(C)C)cc1[N+](=O)[O-] [PT-437, diethyl 4-(4-(dimethylamino)-2-nitrophenyl)-2,6-dimethyl-1,4-dihydropyridine-3,5-dicarboxylate]	−0.1	13.2	–	–	–
COc1ccc(C2C(C(=O)OCc3ccccc3)=C(C)Nc3nnnn32)c(C#N)c1 (centres unmarked) [PT-389, benzyl 7-(2-cyano-4-methoxyphenyl)-5-methyl-4,7-dihydrotetrazolo[1,5-a]pyrimidine-6-carboxylate]	–	–	23.5	69	inhibition at 10 µM [2, 6]: 13.9%; inhibition at 10 µM [2, 7]: 2.9%
CC1=C(C(=O)O[C@@H](C)c2ccccc2)C(c2sc3ccccc3c2C)c2cn[nH]c2N1 (some centres unmarked) [PT-523]	–	–	–	–	Tonic Peak INa % blk ([2]; tonic block): 20.8%; UDB Peak INa % blk ([2]; use-dependent block): 16.2%; Late INa % blk [3]: 66.7%
CCOC(=O)C1=C(C)NC(C)=C(C(=O)OCC)C1c1ccc(OC)cc1F [PT-432, diethyl 4-(2-fluoro-4-methoxyphenyl)-2,6-dimethyl-1,4-dihydropyridine-3,5-dicarboxylate]	3.7	35.3	–	–	–
CCOC(=O)C1=C(C)Nc2c(c(C)nn2C)C1c1cccc2ccccc12 (centres unmarked) [PT-440, ethyl 1,3,6-trimethyl-4-(naphthalen-1-yl)-4,7-dihydro-1H-pyrazolo[3,4-b]pyridine-5-carboxylate]	–	–	12	48	inhibition at 10 µM [2, 6]: 2.8%; inhibition at 10 µM [2, 7]: 4.3%
CCOC(=O)C1=C(C)NC(C)=C(C(=O)OCC)C1c1ccccc1Br [PT-430, diethyl 4-(2-bromophenyl)-2,6-dimethyl-1,4-dihydropyridine-3,5-dicarboxylate]	91.8	98.6	10	21.5	–
CC1=C(C(=O)OCc2ccccc2)C(c2ccc(N(C)C)cc2[N+](=O)[O-])n2nnnc2N1 (centres unmarked) [PT-409, benzyl 7-(4-(dimethylamino)-2-nitrophenyl)-5-methyl-4,7-dihydrotetrazolo[1,5-a]pyrimidine-6-carboxylate]	2.7	19.9	27	78.5	–
CCOC(=O)C1=C(C)NC(C)=C(C(=O)OCC)C1c1ccc(OC)cc1C#N [PT-431, diethyl 4-(2-cyano-4-methoxyphenyl)-2,6-dimethyl-1,4-dihydropyridine-3,5-dicarboxylate]	3.7	2.4	–	–	–
